Measurements: patent US8450362B2, “Amidine-containing compounds useful as muscarinic receptor antagonists” (Theravance, Inc., priority 2007, dated 2013)

Assays:
[1] = system: MCh bronchoconstrictor response; experiment: Rat Einthoven assay (bronchoprotection, inhaled dosing); format: in vivo; details: inhalation; for ID50 (bronchoprotection): 1.5 hrs post-dose
Method: All test compounds are diluted in sterile water and are dosed via the inhalation route (IH). The rats (Sprague-Dawley, male, 250-350 g) are exposed to the aerosol generated from an LC Star Nebulizer Set and driven by a mixture of gases (5% CO2/95% atmospheric air). Each test compound solution is nebulized over a 10 minute time period in a pie shaped dosing chamber capable of holding six rats. At predetermined time points after inhalation of compound, the Einthoven assay is performed.
Thirty minutes prior to the start of pulmonary evaluation, the animals are anesthetized with inactin (thiobutabarbital, 120 mg/kg IP). The jugular vein is catheterized with saline filled polyethylene catheters (PE-50) and used to infuse MCh. The trachea is then dissected and cannulated with a 14G needle and used for rat ventilation during pulmonary evaluation. Once surgery is complete, rats are ventilated using a piston respirator set at a stroke volume of 1 ml/100 g body weight but not exceeding 2.5 ml volume, and at a rate of 90 strokes per minute.
The changes in pressure that occur with each breath are measured. Baseline values are collected for at least 2.5 minutes then rats are challenged non-cumulatively with 2-fold incremental increases of the bronchoconstrictor MCh (5, 10, 20, 40 and 80 μg/ml). The MCh is infused for 2.5 minutes from a syringe pump at a rate of 2 mL/kg/min. The animals are euthanized upon completion of the studies.
Changes in ventilation pressure (cm H2O) in treated animals are expressed as % inhibition of MCh response relative to control animals.
Standard muscarinic antagonists were evaluated in the rat Einthoven assay 1.5 hrs post-dose.
Standards tiotropium and ipratropium were also evaluated 24 hr and/or 6 hr post-dose in the rat Einthoven assay. […] The observed loss of activity at this time point (6 hr) is consistent with its relatively short duration of action in the clinic.

[2] = system: pilocarpine-induced salivation; experiment: Rat antisialagogue assay; format: in vivo; details: evaluated at 1, 6 and 24 hr post-dose
Method: Rats (Sprague-Dawley, male, 250-350 g) are dosed, anesthetized and cannulated as described for Assay 3. At predetermined time points and after surgery, animals are placed on their dorsal side at a 20° incline with their head in a downward slope. A pre-weighed gauze pad is inserted in the animal's mouth and the muscarinic agonist pilocarpine (PILO) (3 mg/kg, iv.) is administered. Saliva produced during 10 minutes post-PILO is measured gravimetrically by determining the weight of the gauze pad before and after PILO. Antisialagogue effects are expressed as % inhibition of salivation relative to control animals.
The rat antisialagogue assay was developed to assess systemic exposure and calculate the lung selectivity index (LSI) of test compounds. The standard, tiotropium, was evaluated in this model at 1, 6, and 24 hr post-dose. […] This finding is consistent with the peak effects observed in the Einthoven assay. This model is a modified version of the procedure described in Rechter, “Estimation of anticholinergic drug effects in mice by antagonism against pilocarpine-induced salivation” Ata Pharmacol Toxicol 24:243-254 […]. The mean weight of saliva in vehicle-treated animals, at each pre-treatment time, is calculated and used to compute % inhibition of salivation, at the corresponding pre-treatment time, at each dose. […]

| Compound | ID50 (bronchoprotection) [1] [µg/mL] | fold less potent 6-hr post-dose compared to 1.5 hr potency ([1]; 10 and 30 μg/ml, 6 hr vs 1.5 hr) | time post dose of greatest potency at inhibiting pilocarpine-induced salivation [2] [h] | 6 hr versus 24 hr potency values [1] | fold more potent at 6 hr and 24 hr compared to 1.5 hr potency ([1]; 6 hr and 24 hr vs 1.5 hr) | time of peak bronchoprotection post-dose ([1]; slow onset of effect) [h] |
| --- | --- | --- | --- | --- | --- | --- |
| C[N+]1(C)CCC(OC(=O)C(O)(c2ccccc2)C2CCCC2)C1 (centres unmarked) [glycopyrrolate] | 15 | – | – | – | – | – |
| CC(C)[N+]1(C)[C@@H]2CC[C@H]1C[C@@H](OC(=O)C(CO)c1ccccc1)C2 (some centres unmarked) [ipratropium] | 4.4 | about 3 fold | – | – | – | – |
| C[N+]1(C)[C@@H]2C[C@@H](OC(=O)C(O)(c3cccs3)c3cccs3)C[C@H]1[C@@H]1O[C@@H]12 [tiotropium] | 6 | – | 6 | not significantly different from each other | about 2 fold | 6 |
